Consider one molecule from PMC10243363 (ACS chemical neuroscience, 2022).

For series [1], the system named is mice. Kind of series: Warm-water tail immersion. The class given is in vivo, mouse. Conditions: mice.
The subject of series [2] is mice. Put plainly: Respiration by whole-body plethysmography. It is filed as in vivo, mouse. Conditions: 0.1 mg/kg.
The test system of series [3] is rats. The settings on record: rat, in vivo, iv.
Series [4] concerns Caco-2 cell monolayer. Put plainly: Caco-2 permeability assay. Conditions: 10 μM; ± SEM. A general note: Caco-2 monolayers are a common model of the intestinal barrier.
Series [5] has as its system mice. Put plainly: Tolerance and cross tolerance. The settings on record: day 5; 0.1 mg/kg NMF vs 10 mg/kg morphine.
Series [6] relates to mice. Put plainly: Spontaneous locomotor activity. The settings on record: 30 min.

Turning to `CN(C(=O)/C=C/c1ccoc1)[C@@H]1CC[C@@]2(O)[C@H]3Cc4ccc(O)c5c4[C@@]2(CCN3CC2CC2)[C@H]1O5.Cl` [Compound 11, (2E)-N-[6β-17-(Cyclopropylmethyl)-3,14-dihydroxy-4,5α-epoxy-morphinan-6-yl]-3-(3-furanyl)-N-methyl-2-propenamide hydrochloride], in series [1] (0.1 mg/kg s.c.), the Duration of antinociception entry is on record as “approximately 3 hours”. In addition, in series [1] (s.c.), the “Calculated ED90 of antinociception” value is recorded as 0.1 mg/kg. In addition, in series [1] (s.c., 20 min after injection), the “Antinociception potency ED50 (95% CL)” value is given as 0.037 (0.014 - 0.096) mg/kg. Besides, the “Time of peak antinociceptive effect” value in series [1] (time-course study, s.c.) is listed as “around 0.5 h”. In series [2], the “Effects on respiration (frequency, minute volume, tidal volume)” value is “no significant effects on the respiration”. Also, in series [3], the “Reinforcing effect in self-administration (number of infusions vs saline)” value was “non-reinforcer”. For the same molecule, the “B-A Permeability” value in series [4] is reported as 31.8 ± 0.8 x10^−6 cm/s. Further, in series [5], the “Antinociceptive effect in morphine-tolerated mice (cross tolerance)” value was “retained a higher antinociceptive effect than morphine”. The “Activity-reducing (sedative) effects on locomotor activity” value in series [6] (0.1 mg/kg or 0.5 mg/kg s.c.) was “no significant activity-reducing effects”. Besides, in series [6] (s.c.), the “Hyperactivity in locomotor activity test” value is “no significant hyperactivity”.
